The text below walks through data of the METLIN SMRT retention time set (Domingo-Almenara et al. 2019).

Structures are written as SMILES.

The series is described as follows: gradient 5% acetonitrile 3 min, to 50% in 2 min, to 85% in 15 min, held 3 min, 100 µL/min. Conditions: column: Zorbax Extend-C18 2.1 x 50 mm; eluents: water / acetonitrile, 0.1% formic acid. The gist of the method: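 The system's dead and dwell volumes were 40 μL and 900 μL, with a Zorbax Extend-C18 column (2.1 × 50 mm, 1.8 μm) run at 100 μL/min in water and acetonitrile containing 0.1% formic acid each. Pure standards were analyzed in mixtures of ~100 molecules by HPLC–quadrupole time-of-flight mass spectrometry in positive and negative ionization mode. Retention time was assigned from computationally picked, manually inspected adduct peaks.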
The molecule `CCN1CCN(C(=O)C2CCN(S(=O)(=O)c3cc(C(=O)N4CCCC4)n(C)c3)CC2)CC1` displayed an RP-LC retention time of 567 s.
Molecule `COc1cc(CCC(=O)N2CCN(c3cc(=O)n(C)c(=O)n3C)CC2)cc(OC)c1OC` showed an RP-LC retention time of 647 s.
Molecule `CCc1cccc(C)c1NC(=O)C1CCN(S(=O)(=O)c2ccc3c(c2)NC(=O)CO3)CC1` gave an RP-LC retention time of 818 s.
In the case of `CC(C)CNC(=O)C1CCN(c2nc3ccc(-c4cccnc4)nc3s2)CC1`, the RP-LC retention time worked out at 640 s.
Take `CCCN1C(=O)C(CC(=O)NC2CCCCC2)Sc2ncccc21` (stereo unspecified): the RP-LC retention time was found to be 803 s.
As to `CCCN1C(=O)C(NC(=O)c2cccc(OC)c2)(C(F)(F)F)C(C(=O)OC)=C1C` (stereo unspecified), the RP-LC retention time amounted to 946 s.
Next, `Cc1cc(NC(=O)C(=O)c2ccc[nH]2)ccc1Br`: 1040 s.
`O=C(NCc1ccc(F)cc1F)C1CCN(c2cc(N3CCOCC3)ncn2)CC1` had an RP-LC retention time of 627 s.
The molecule `Nc1ccccc1Sc1cc(Cl)nnc1Cl` yielded an RP-LC retention time of 983 s.
`CCOc1nc2ccccc2nc1N1CCCC(C(=O)Nc2cc(Cl)ccc2C)C1` (stereo unspecified) showed an RP-LC retention time of 1310 s.
Turning to `CCCC(=O)Nc1ccc(S(=O)(=O)NCCn2ncccc2=O)cc1`, the RP-LC retention time was 612 s.
Consider `Cc1cc2c(N3CCN(CCO)CC3)ncnc2s1`, for which the RP-LC retention time turned out to be 520 s.
Turning to `COc1ccc(NS(=O)(=O)c2cc(-c3[nH]ncc3C(=O)N3CCCCC3)oc2C)cc1`, the RP-LC retention time is 731 s.
The molecule `CCn1cc(C2=CCN(C(=O)NCc3ccc(OC)cc3)CC2)c2cccnc21` displayed an RP-LC retention time of 858 s.
Next, `Nc1nc(CC(=O)Nc2ccc(CCNC[C@H](O)c3ccccc3)cc2)cs1`: 591 s.
Next, `CNC(=O)Oc1ccc(N(C)C)cc1C(C)C`: 642 s; `O=C(O)c1ccccc1-c1ccccc1C(=O)Nc1ccc2c(c1)Cc1ccccc1-2`: 939 s; `Cc1ccc2oc(-c3nnc(C(=O)NCCCN4CCOCC4)o3)c(C)c2c1`: 668 s.
In the case of `COc1ccccc1N1CCN(C(=S)Nc2ccc3nc(N4CCN(C)CC4)cc(C)c3c2)CC1`, the RP-LC retention time is 586 s.
Regarding `CCOc1ccc2nc(C(=O)NC3CC3)cn2n1`, the RP-LC retention time came to 697 s.
In turn, `CN(CCCNC(=O)C1CCCN(c2ccc(N3CCOCC3)nn2)C1)c1ccccc1` (stereo unspecified) yielded an RP-LC retention time of 570 s.
With `O=C(CCC1CCCC1)Nc1c2c(nn1-c1cccc(Cl)c1)CS(=O)C2` (stereo unspecified) the figure was 746 s.
`Cc1csc(-c2ccc(N3CCN(C(=O)c4nccc5ccccc45)CC3)nc2)n1` returned an RP-LC retention time of 829 s.
`CN(C(=O)CCCOc1ccc2[nH]c(=O)ccc2c1)C1CCCCC1`: the RP-LC retention time was 840 s.
Molecule `CCOC(=O)c1noc2ncnc(NCCCN3CCCc4ccccc43)c12` showed an RP-LC retention time of 1240 s.
The molecule `Cc1cc2c(cc1NC(=O)c1cccs1)n(C)c(=O)c(=O)n2C` came in with an RP-LC retention time of 663 s.
`CS(=O)(=O)N1CCC(C(=O)NCC2(CO)CC2)CC1` returned an RP-LC retention time of 536 s.
In the case of `CCNc1cc(N2CCCC(CCC(=O)Nc3ccc(OC)cc3)C2)ncn1` (stereo unspecified), the RP-LC retention time was 659 s.
`Cc1nc2cc(-c3noc(/C=C/c4ccco4)n3)ccc2n(C2CCCC2)c1=O` had an RP-LC retention time of 1280 s.
In the case of `CCc1ccc(-c2ccc(-n3nc(C)c(S(=O)(=O)NC4CC4)c3C)nn2)cc1`, the RP-LC retention time was determined as 1070 s.
With `Cc1oc(C2CCN(C(=O)Nc3ccc(F)cc3)CC2)nc1C(=O)N1CCCC1` the figure was 752 s.
As to `Cc1nnc2ccc(S(=O)(=O)Nc3ccc(F)c(F)c3)cn12`, the RP-LC retention time is 692 s.
For `CN(C)CCNC(=O)c1ccc2c(c1)N(Cc1ccc(F)cc1)C(=O)CO2`, the RP-LC retention time was determined as 616 s.
Next, `COc1ccc(C2CC(=O)N(c3ccc(C)cc3C)C(=O)C2)cc1`: 941 s.
The molecule `Cc1[nH]c(C(=O)N2CCCC(C(=O)NC3CCCCC3)C2)c(C)c1C(=O)OC(C)C` (stereo unspecified) came in with an RP-LC retention time of 861 s.
`Cc1ccccc1NC(=O)c1c(NC(=O)CCC(=O)O)sc2c1CCCC2` had an RP-LC retention time of 939 s.
Next, `O=C(NCc1csc(C2CCN(C(=O)c3ccc(Cl)cc3)CC2)n1)C1CCC1`: 761 s; `CCn1cnc(S(=O)(=O)N2CCC(C(=O)NCc3ccc(OC(C)C)cc3)CC2)c1`: 749 s; `CCCn1cc(C(=O)Nc2ccc3c(c2)OCCO3)c(=O)c2ccc(C)nc21`: 1070 s.
Next, `Cc1cccn2cc(C(=O)NCCC3=CCCCC3)nc12`: 860 s; `Cc1cc(C(=O)N2C[C@@H](CO)[C@H](N(C)C)C2)ccc1Br`: 597 s; `O=C(C1CCN(c2cnn(Cc3ccccc3)c(=O)c2)CC1)N1CCCCC1`: 761 s.
Molecule `COc1ccc(NC(=O)c2cc3c(s2)CN(C2CC2)C3)c(C)c1` came in with an RP-LC retention time of 783 s.
For the molecule `O=C(Nc1ccccc1C(F)(F)F)C1CN(C(=O)c2ccc(F)c(F)c2)C1`, the RP-LC retention time stood at 748 s.
With `CCOC(=O)c1ccccc1NC(=O)Cn1c(-c2ccccc2)nc(C)cc1=O` the figure was 1330 s.
Next, `Cc1cccc(OCCc2noc(C3CCCN3)n2)c1` (stereo unspecified): 645 s.
Take `CCCN1C(=O)COc2ccc(-c3csc(NC(=O)c4c(OC)cccc4OC)n3)cc21`: the RP-LC retention time was 944 s.
In turn, `COCCCNC(=O)C1(C)Cn2nc(-c3ccccc3)cc2C(=O)N1c1ccc(F)cc1` (stereo unspecified) displayed an RP-LC retention time of 806 s.
With `c1ccc(CNc2nc(C3CC3)nc3c2CCC3)nc1`, the RP-LC retention time came out at 540 s.
With `CCN1C(=O)c2ccccc2Oc2ccc(C(=O)NCc3cccs3)cc21` the figure was 911 s.
Turning to `O=C(Cn1ccc2sccc2c1=O)NCc1ccc(F)cc1`, the RP-LC retention time was 694 s.
`N#Cc1ccc(NC(=O)Cn2cccc(-c3nc(-c4ccc(F)cc4)no3)c2=O)cc1` returned an RP-LC retention time of 857 s.
For the molecule `CCS(=O)(=O)N1CCCc2cc(C(=O)NC3CCCCC3)ccc21`, the RP-LC retention time was determined as 656 s.
With `CCOC(=O)c1cn[nH]c1S(=O)(=O)N1CCC(C(N)=O)CC1`, the RP-LC retention time stood at 585 s.
`CNC(=O)C1CCCN(c2nc3ncn(CC(=O)N4CCc5ccccc5C4)c(=O)c3s2)C1` (stereo unspecified) gave an RP-LC retention time of 666 s.
With `CCCCN(CCCNC(=O)C1CCN(S(=O)(=O)N2CCOCC2)CC1)Cc1ccccc1` the figure was 640 s; with `Cc1cccc(N2CCN(C(=O)CCC(=O)N3CCCn4nc(-c5cccn5C)cc43)CC2)c1C`, 968 s; with `COc1ccc2nc(-c3ccc(F)c(NC(=O)Nc4ccccc4C)c3)cn2n1`, 789 s.
As for `Cc1cc(CN2CCC(CNC(=O)C(=O)Nc3cccnc3)CC2)c(C)o1`, the RP-LC retention time came out at 681 s.
Molecule `COc1ccccc1CNC(=O)C1CCc2nc(N3CCCCC3)ncc2C1` (stereo unspecified) came in with an RP-LC retention time of 755 s.
`CCc1cc(=O)n(CC(=O)Nc2cc(C)cc(C)c2)c(N2CCOCC2)n1` gave an RP-LC retention time of 802 s.
On to `Cc1cc(-c2c(C)sc(C)c2S(=O)(=O)NCC(C)c2ccccc2)n[nH]1` (stereo unspecified), for which the RP-LC retention time is 1140 s.
`O=C(Nc1ccc2c(c1)N(C(=O)C1CCCO1)CC2)c1ccc(F)c(F)c1` (stereo unspecified) came in with an RP-LC retention time of 771 s.
`O=C(NC1CCCCC1)C1c2ccccc2C(=O)N1Cc1ccc2c(c1)OCO2` (stereo unspecified) showed an RP-LC retention time of 860 s.
Next, `O=C(NC1CCCCCC1)c1nnc(-c2ccc(S(=O)(=O)N3CCCC3)cc2)o1`: 1010 s; `O=C(NC1CCN(c2cc(-c3cccs3)[nH]n2)C1)c1cccc(F)c1` (stereo unspecified): 715 s; `CCOC(=O)c1nnc2c(-c3ccc(Br)cc3)c(C)nn2c1C`: 1100 s.
`CCOC(=O)c1nc(Nc2ccc(F)cc2F)c2ccccc2n1` returned an RP-LC retention time of 845 s.
`COc1ccccc1C(=O)N1CCN(c2cnn3c(C)nnc3c2)CC1` showed an RP-LC retention time of 601 s.
The molecule `Cc1ccc(CN2C(=O)CC(N3CCCCC3)C2=O)cc1` (stereo unspecified) returned an RP-LC retention time of 580 s.
For the molecule `Cc1nn(-c2ccccc2)c(C)c1S(=O)(=O)N1CCC(C(=O)Nc2ccc(C#N)cc2)CC1`, the RP-LC retention time came out at 938 s.
In turn, `COc1ccccc1OCCC1CCN(S(=O)(=O)Cc2ccccc2F)C1` (stereo unspecified) gave an RP-LC retention time of 1030 s.
The molecule `CCC(=O)N(CC(=O)N(Cc1ccc2c(c1)OCO2)Cc1sccc1C)CC1CCCO1` (stereo unspecified) came in with an RP-LC retention time of 864 s.
Molecule `CCc1ccccc1NC(=O)Cn1c(=O)n(-c2cccc(C)c2)c(=O)c2c1cc(C)n2C` gave an RP-LC retention time of 882 s.
The molecule `COc1ccc(OC)c(-c2csc(NC(=O)c3ccccc3)n2)c1` returned an RP-LC retention time of 1040 s.
Molecule `CCOC(=O)Cc1csc(NC(=O)CSc2nnc3ccccn23)n1` had an RP-LC retention time of 617 s.
For `O=C(Cn1nc(C(=O)N2CCCCC2)c2ccccc21)N1CCN(c2cccc(Cl)c2)CC1`, the RP-LC retention time came to 1010 s.
Next, `O=C(CCc1nc(CSc2nnc(-c3ccccc3)o2)no1)Nc1ccc(Br)cc1`: 967 s.
The molecule `CN(Cc1cccnc1)C(=O)c1c(OCC2CC2)cc(=O)n2c1CCCCC2` returned an RP-LC retention time of 587 s.
For the molecule `Cc1ccc(NC(=O)Cc2c(C)nn(-c3nc(-c4ccc(Cl)cc4)cs3)c2C)c(C)c1`, the RP-LC retention time came to 1280 s.
On to `Cc1cccc(NC(=O)CN2C(=O)C3CCCN3C(=O)c3ccc(F)cc32)c1C` (stereo unspecified), for which the RP-LC retention time was 731 s.
